According to US20050038058A1, “Novel compounds and methods for therapy” (Institute of Organic Chemistry and Biochemistry, priority 2001, published 2005):
In brackets after ≈: the same amount, converted by molar mass. Where two headings read alike, the source gives them in different places.

What was measured:
[1] = Cell viability in monocyte/macrophages (M/M); type: cell-based, human; details: human
HIV-1(IIIB) = test: HIV-1(IIIB)-induced cytopathicity in CEM cell cultures; type: cell-based
Text: Viruses. The origins of MSV, HIV type 1 (HIV-1) (strain IIIB and Ba-L), HIV-2 (strain ROD) and FIV (strain Petaluma) have been described previously (Balzarini et al., AIDS 5: 21-28, 1991; De Clercq et al., Proc. Soc. Exp. Biol. Med. 137:590-594, 1971; Egberink et al., Proc. Natl. Acad. Sci. 87:3087-3091, 1990; Hartmann et al., Antiviral Chem. Chemother. 5:13-19, 1994; Popovic et al., Science 224:497-500, 1984). HIV-1(IIIB) and HIV-2(ROD) stocks were obtained from supernatants of virus-infected MT-4 cell cultures. HIV-1BaL was expanded in human primary M/M, whose supernatants were collected, filtered and stored at −80° C. before use. Characteristics of viral stocks used for this study were 2.1×10^8 HIV-RNA genomes/ml (corresponding to 35 ng of p24 antigen) and 5,000 tissue culture infectious doses 50% per ml (TCID50/ml) as assessed by virus titration in other primary M/M cultures. The isolation and characterization of the clinical HIV-1 isolates L1S, L6S and L6S/PMEA has been reported (Thormar et al., Proc. Natl. Acad. Sci. USA 93:3283-3287, 1995; Van Laethem et al., AIDS 15:553-561, 2001). […] HIV-1/L6S/PMEA is the clinical isolate HIV-1/L6S that has been isolated after culturing the virus for 11 passages in the presence of increasing concentrations of PMEA (adefovir).
In vitro antiviral assays. The activity against HIV-1- and HIV-2-induced cytopathicity was examined in MT-4 cell cultures at day 5 post infection and based on the determination of cell viability by trypan blue dye staining or in CEM cell cultures at day 4 to 5 post infection and based on the microscopical examination of virus-induced giant cell formation. HIV-1 and HIV-2 were added at 100 CCID50 to the cell cultures.

Cell viability in PBL = type: cell-based; details: human, reduction of cell viability, Table 2
CrFK cells = test: Toxicity in CrFK cells; type: cell-based, feline; details: Table 2
[2] = tested on: monocyte/macrophages (M/M); test: Cell viability in monocyte/macrophages (M/M); type: cell-based, human; details: reduction of cell viability; Table 2
MT-4 cells = test: MT-4 cell toxicity (trypan blue exclusion); type: cell-based; details: reduction of cell viability; Table 2
Outline: (§1)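 MT-4 cells (5×10^4/well) exposed to compound dilutions for 5 days at 37 °C; CC50 = concentration cutting living cells by 50%, counted microscopically with trypan blue exclusion. CEM cytostatic CC50 defined likewise, by a previously described method.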

CEM cells = test: Inhibition of CEM cell growth (cytostatic activity); type: cell-based
Outline: as §1

PBL = test: Cell viability in PBL; type: cell-based; details: reduction of cell viability; Table 2
MSV = test: Antiviral activity, MSV, Table 1a; type: cell-based
VZV TK + OKA = test: Antiviral activity, VZV TK+ OKA, Table 1a; type: cell-based
HIV-2 = test: Antiviral activity, HIV-2, Table 1a; type: cell-based
CMV AD-169 = test: Antiviral activity, CMV AD-169, Table 1a; type: cell-based
CMV Davis = test: Antiviral activity, CMV Davis, Table 1a; type: cell-based
VZV TK − YS/R = test: Antiviral activity, VZV TK- YS/R, Table 1a; type: cell-based
HSV-2 (G) = test: Antiviral activity, HSV-2 (G), Table 1a; type: cell-based
VZV TK + YS = test: Antiviral activity, VZV TK+ YS, Table 1a; type: cell-based
HSV-1 TK- VMW 1837 = test: Antiviral activity, HSV-1 TK- VMW 1837, Table 1a; type: cell-based
VZV TK − 07/1 = test: Antiviral activity, VZV TK- 07/1, Table 1a; type: cell-based
HSV-1 (KOS) = test: Antiviral activity, HSV-1 (KOS), Table 1a; type: cell-based
[3] = Human immunodeficiency virus 1, CCRF-CEM, HIV-1 (IIIB) in CEM, no addition, Table 3, read-out: EC50 as such
[4] = Human immunodeficiency virus 1, CCRF-CEM, HIV-1 (IIIB) in CEM, Ade 100 μM, read-out: EC50 upon addition of Ade (100 μM)
[5] = Human immunodeficiency virus 1, CCRF-CEM, HIV-1 (IIIB) in CEM, Ado 400 μM, read-out: EC50 upon addition of Ado (400 μM)
[6] = Human immunodeficiency virus 1, CCRF-CEM, HIV-1 (IIIB) in CEM, Guo 10 μM, read-out: EC50 upon addition of Guo (10 μM)
[7] = Human immunodeficiency virus 1, CCRF-CEM, HIV-1 (IIIB) in CEM, dCyd 1 mM, read-out: EC50 upon addition of dCyd (1 mM)
[8] = Human immunodeficiency virus 1, CCRF-CEM, HIV-1 (IIIB) in CEM, dThd 10 μM, read-out: EC50 upon addition of dThd (10 μM)
[9] = Human immunodeficiency virus 1, CCRF-CEM, HIV-1(IIIB)-induced cytopathicity in CEM cell cultures, Table 1, read-out: EC50 HIV-1 (CEM)
[10] = Human immunodeficiency virus 1, IIIB, CCRF-CEM, giant cell formation, mean ±SD of 2 to 4 experiments, Table 2, read-out: EC50 HIV-1 (IIIB) (CEM)
[11] = 50% cytostatic concentration, CEM cell proliferation, Table 1
[12] = inhibition of cell proliferation, Table 2
[13] = HIV-1 (IIIB) in CEM, no addition, Table 3
[14] = HIV-1 (IIIB) in CEM, Ade 100 μM
[15] = HIV-1 (IIIB) in CEM, Ado 400 μM
[16] = HIV-1 (IIIB) in CEM, dThd 10 μM
[17] = HIV-1(IIIB)-induced cytopathicity in CEM cell cultures, Table 1
[18] = giant cell formation, mean ±SD of 2 to 4 experiments, Table 2

SMILES	EC50 (HIV-1(IIIB); [3]) [µg/mL]	EC50 (HIV-1(IIIB); [4]) [µg/mL]	EC50 (HIV-1(IIIB); [5]) [µg/mL]	EC50 (HIV-1(IIIB); [6]) [µg/mL]	EC50 (HIV-1(IIIB); [7]) [µg/mL]	EC50 (HIV-1(IIIB); [8]) [µg/mL]	EC50 (HIV-1(IIIB); [9]) [µg/mL]	EC50 (HIV-1(IIIB); [10]) [µg/mL]	CC50 CrFK (CrFK cells) [µg/mL]	CC50 M/M [2] [µg/mL]	CC50 MT-4 (MT-4 cells)	CC50 (CEM) (CEM cells; [11]) [µg/mL]	CC50 (CEM) (CEM cells; [12]) [µg/mL]	EC50 as such (HIV-1(IIIB); [13]) [µg/mL]	EC50 upon addition of Ade (100 μM) (HIV-1(IIIB); [14]) [µg/mL]	EC50 upon addition of Ado (400 μM) (HIV-1(IIIB); [15]) [µg/mL]	EC50 upon addition of Guo (10 μM) (HIV-1(IIIB); HIV-1 (IIIB) in CEM, Guo 10 μM) [µg/mL]	EC50 upon addition of dCyd (1 mM) (HIV-1(IIIB); HIV-1 (IIIB) in CEM, dCyd 1 mM) [µg/mL]	EC50 upon addition of dThd (10 μM) (HIV-1(IIIB); [16]) [µg/mL]	EC50 HIV-1 (CEM) (HIV-1(IIIB); [17]) [µg/mL]	also measured
Nc1cc(OCCOCP(=O)(O)O)nc(N)n1 [Compound 1, 2,4-diamino-6-[2-(phosphonomethoxy)ethoxy]pyrimidine]	0.77 ± 0.25 (≈ 2.91 µM)	0.26 ± 0.16 (≈ 0.984 µM)	0.63 ± 0.29 (≈ 2.38 µM)	0.65 ± 0.21 (≈ 2.46 µM)	0.55 ± 0.35 (≈ 2.08 µM)	0.35 ± 0.07 (≈ 1.32 µM)	0.8 (≈ 3.03 µM)	0.9 ± 0.4 (≈ 3.41 µM)													CC50 [1]: > 100 µg/mL; CC50 (Cell viability in PBL; PHA-stimulated peripheral blood mononuclear cells (PBL)): 2.2 ± 0.8 µg/mL (≈ 8.33 µM)
Nc1ncnc2c1ncn2CCOCP(=O)(O)O [PMEA, 9-[(2-phosphono-methoxy)ethyl]adenine, reference compound]	0.94 ± 0.24 (≈ 3.44 µM)	1.9 ± 1.3 (≈ 6.95 µM)	1.6 ± 0.4 (≈ 5.86 µM)	1 ± 0.8 (≈ 3.66 µM)	2.1 ± 0.19 (≈ 7.69 µM)	1.4 ± 0.4 (≈ 5.12 µM)	0.96 (≈ 3.51 µM)	0.96 ± 0.24 (≈ 3.51 µM)													CC50 ([1]; reduction of cell viability, Table 2, read-out: CC50 M/M): > 100 µg/mL; CC50 (Cell viability in PBL): 1.7 ± 0.4 µg/mL (≈ 6.22 µM)
C[C@H](Cn1cnc2c(N)ncnc21)OCP(=O)(O)O [(R)-PMPA, (R)-9-[(2-phosphonomethoxy)-propyl]adenine, reference compound]									>100	>100	72 ± 12 µg/mL (≈ 251 µM)	125 (≈ 435 µM)	125 ± 26 (≈ 435 µM)	0.57 ± 0.26 (≈ 1.98 µM)	1.6 ± 1.6	0.46 ± 0.23	0.43 ± 0.0	0.53 ± 0.26	0.43 ± 0.0	0.36 (≈ 1.25 µM)	EC50 HIV-1 (IIIB) (CEM) (HIV-1(IIIB); [18]): 0.36 ± 0.24 µg/mL (≈ 1.25 µM); CC50 PBL (PBL): >100 µg/mL
C[C@H](COc1cc(N)nc(N)n1)OCP(=O)(O)O [Compound 11, 2,4-diamino-6-(R)-[2-(phosphonomethoxy)propoxy]pyrimidine]									>100	>100	≧100 μg/ml	62 (≈ 223 µM)	62 ± 25 (≈ 223 µM)	1.2 ± 0.25 (≈ 4.31 µM)	0.35 ± 0.17	1.5 ± 0.70	0.77 ± 0.38	1.1 ± 0.51	0.83 ± 0.35	1.8 (≈ 6.47 µM)	Antiviral Activity EC50 MSV (MSV): 0.05 µg/mL; Antiviral Activity EC50 VZV TK + OKA (VZV TK + OKA): 3.8 µg/mL; Antiviral Activity EC50 HIV-2 (HIV-2): 1.3 µg/mL; Antiviral Activity EC50 CMV AD-169 (CMV AD-169): >50 µg/mL; Antiviral Activity EC50 CMV Davis (CMV Davis): >50 µg/mL; CC50 for CEM cells (CEM cells): around 60 μg/mL; Antiviral Activity EC50 VZV TK − YS/R (VZV TK − YS/R): 5.7 µg/mL; Antiviral Activity EC50 HSV-2 (G) (HSV-2 (G)): 48 µg/mL; Antiviral Activity EC50 VZV TK + YS (VZV TK + YS): 5.9 µg/mL; Antiretroviral (anti-HIV-1) activity in CEM cell cultures, in words (HIV-1(IIIB)): markedly more inhibitory; EC50 HIV-1 (IIIB) (CEM) (HIV-1(IIIB); [18]): 1.9 ± 0.5 µg/mL (≈ 6.83 µM); Antiviral Activity EC50 HSV-1 TK- VMW 1837 (HSV-1 TK- VMW 1837): 9.6 µg/mL; CC50 PBL (PBL): 9.6 ± 2.5 µg/mL (≈ 34.5 µM); Antiviral Activity EC50 VZV TK − 07/1 (VZV TK − 07/1): 6.3 µg/mL; Antiviral Activity EC50 HSV-1 (KOS) (HSV-1 (KOS)): 16 µg/mL; Antiviral Activity EC50 HIV-1 (HIV-1): 1.9 µg/mL
Nc1cc(SCCOCP(=O)(O)O)nc(N)n1 [Compound 2, 2,4-diamino-6-{[2-(phosphonomethoxy)ethyl]-sulfanyl}pyrimidine]	1.9 ± 0.75 (≈ 6.78 µM)	3.3 ± 3.2 (≈ 11.8 µM)	4.4 ± 2.8 (≈ 15.7 µM)	1.9 ± 0.49 (≈ 6.78 µM)	2.1 ± 1.7 (≈ 7.49 µM)	1.4 ± 0.21 (≈ 5 µM)	5.5 (≈ 19.6 µM)	4.6 ± 3.1 (≈ 16.4 µM)													
